This is an account of results in patent US20120018333A1, “Reducing Side Effects of Tramadol” (priority 2007, published 2012).

Molecules are shown by their SMILES. Counter-ions that a name gives are not always drawn.

For data set [1] the following is noted: used for analgesia; cited from earlier work.
Data set [2] in a line: volunteer study of adverse events: tramadol HCl alone or combined with sildenafil citrate and naltrexone HCl before sexual intercourse. On the procedure:
In particular, three healthy, heterosexual male subjects (mean age 57) signed informed consents and volunteered to self administer oral tramadol HCl 100 mg 2 to 5 hours before sexual intercourse and to record any adverse events. At other times, these volunteers self administered oral tramadol HCl 25 to 100 mg combined with oral sildenafil citrate 50 mg or oral sildenafil citrate 50 mg plus oral naltrexone HCl 2.5 to 10 mg 2 to 5 hours before sexual intercourse and recorded any adverse effects.

The nature of data set [3]: placebo controlled, dose-ranging clinical study of oral tramadol HCl in men with severe premature ejaculation. The class given is in vivo, human. Conditions: percentages based on total drug exposures for the three doses, 2 to 5 hours before intercourse. The procedure:
See U.S. Pat. No. 6,974,839, Safarinejad et al., J. Clin. Psychopharmacol., 26(1):27-31 (February 2006) and Salem et al., J. Sex. Med., 5(1):188-193 (January 2008). A placebo controlled, dose-ranging clinical study that enrolled more than 60 male volunteers with severe premature ejaculation who self administered three different doses of oral tramadol HCl 2 to 5 hours before sexual intercourse was performed on behalf of DMI BioSciences, Inc., Aurora, Colo. […] However, the patient reported outcome responses in this study also reported the following previously unreported mild or moderate adverse events (percentages based on total drug exposures for the three doses): erectile dysfunction (8%-14%), anorgasmia (3%-7%), and penile hypoesthesia (4%-5%). Less common unexpected, drug-related mild or moderate adverse events were decreased libido (<1%-2%) and decreased orgasmic sensation (0-<1%). These mild or moderate adverse events related to sexual activity were generally dose-dependent and occurred more frequently in men 40 years of age and older.

Where [4] appears, read: tramadol HCl 100 mg alone, % of total drug exposures, three volunteers.

Take `COc1cccc(C2(O)CCCCC2CN(C)C)c1` (stereo not shown) [Tramadol, 2-[(dimethylamino)methyl]-1-(3-methoxyphenyl)-cyclohexanol]: in data set [1], the “incidence of reported side effects (dizziness, nausea, constipation, headache, somnolence, vomiting, pruritis, CNS stimulation, asthenia, sweating, dyspepsia, dry mouth, diarrhea)” value is at least 5%.
In the case of `COc1cccc([C@]2(O)CCCC[C@H]2CN(C)C)c1` (racemic) [tramadol HCl, (±) cis-2-[(dimethylamino)methyl]-1-(3-methoxyphenyl)-cyclohexanol hydrochloride], the serious adverse events result in data set [2] (oral, 2 to 5 hours before sexual intercourse) is on record as “No serious adverse events occurred”. In data set [2] (setting [4]), the anorgasmia stood at 29%, the constipation amounted to 71%, the decreased libido is 43% and the decreased orgasmic sensation stood at 57%. Also, in data set [2] (setting [4]), the dizziness came to 14%, the dry mouth is recorded as 57%, the erectile dysfunction was determined as 43% and the fatigue turned out to be 14%. For the same molecule, in data set [2] (setting [4]), the insomnia stood at 71%, the itching came out at 57%, the nasal congestion came out at 57% and the nausea is reported as 14%. In addition, in data set [2] (setting [4]), the penile hypoesthesia was 43% and the restlessness stood at 29%. The “mild or moderate adverse events, 100 mg dose compared with 25 mg” value in data set [2] (tramadol HCl alone, oral) was “substantially more”. Also, in data set [3], the “anorgasmia (mild or moderate adverse event)” value is given as 3%-7%, the “decreased libido (mild or moderate adverse event)” value is given as <1%-2%, the “erectile dysfunction (mild or moderate adverse event)” value is 8%-14% and the “penile hypoesthesia (mild or moderate adverse event)” value is listed as 4%-5%.
For the molecule `O=C1CC[C@@]2(O)[C@H]3Cc4ccc(O)c5c4[C@@]2(CCN3CC2CC2)[C@H]1O5` [naltrexone], the “effectiveness of tramadol in delaying ejaculation” value in data set [2] (naltrexone 2.5 mg to 10 mg given with tramadol) was “did not reduce”.
